From ChEMBL document CHEMBL5029185, “Discovery of Novel Polycyclic Heterocyclic Derivatives from Evodiamine for the Potential Treatment of Triple-Negative Breast Cancer” (J Med Chem, 2021)
Active and inactive are the calls of the source. No cut-off for these calls is given here.

Columns and labels:
MDA-MB-231 [1] = test: Induction of ROS generation in human MDA-MB-231 cells transfected with siRNA-Top1 by fluorescent dye […] based flow cytometry; format: functional, cell-based
MDA-MB-231 [2] = test: Induction cell cycle arrest in human MDA-MB-231 cells assessed as accumulation at G2 phase at 0.2 uM measured after 48 hrs by PI staining based flow cytometry (reference value: 10.2%); format: functional
[3] = Ratio of IC50 for antiproliferative activity against human MDA-MB-231 cells transfected with siRNA-Top1 to IC50 for antiproliferative activity against human MDA-MB-231 cells transfected with siRNA-Ctrl assessed as cell viability by MTT assay; format: functional
MDA-MB-231 [4] = test: Induction cell cycle arrest in human MDA-MB-231 cells assessed as accumulation at S phase at 0.2 uM measured after 48 hrs by PI staining based flow cytometry (reference value: 36%); format: functional
[5] = target: T1, DNA topoisomerase 1 (Homo sapiens) (UniProt P11387); test: Induction of topoisomerase 1-DNA cleavable complex in human MDA-MB-231 cells assessed as decrease in free Top1 in nuclear extract at 30 uM measured up to 9 hrs by Immunoband depletion assay; format: cell-based; details: time hrs <=9
T1 sequence (whole entry): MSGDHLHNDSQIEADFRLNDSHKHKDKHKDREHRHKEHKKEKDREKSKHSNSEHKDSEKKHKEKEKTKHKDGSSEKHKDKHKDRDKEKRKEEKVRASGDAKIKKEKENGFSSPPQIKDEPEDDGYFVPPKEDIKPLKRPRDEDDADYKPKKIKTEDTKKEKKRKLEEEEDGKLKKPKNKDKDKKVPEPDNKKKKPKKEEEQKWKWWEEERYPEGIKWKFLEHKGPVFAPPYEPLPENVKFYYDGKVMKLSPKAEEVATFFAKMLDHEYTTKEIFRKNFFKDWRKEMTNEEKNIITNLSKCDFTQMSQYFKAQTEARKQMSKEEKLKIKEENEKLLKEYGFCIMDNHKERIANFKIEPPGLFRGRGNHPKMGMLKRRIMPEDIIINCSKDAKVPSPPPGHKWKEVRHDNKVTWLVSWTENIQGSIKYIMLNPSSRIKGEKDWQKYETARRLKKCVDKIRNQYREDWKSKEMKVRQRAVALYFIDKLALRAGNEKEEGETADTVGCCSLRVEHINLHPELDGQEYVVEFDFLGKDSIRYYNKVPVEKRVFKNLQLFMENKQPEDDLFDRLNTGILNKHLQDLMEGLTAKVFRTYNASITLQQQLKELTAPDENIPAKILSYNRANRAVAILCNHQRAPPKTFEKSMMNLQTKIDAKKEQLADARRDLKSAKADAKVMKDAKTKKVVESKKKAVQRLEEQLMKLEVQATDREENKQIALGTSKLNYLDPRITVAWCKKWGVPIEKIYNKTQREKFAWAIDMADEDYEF

HepG2 = test: Antiproliferative activity against human HepG2 cells assessed as inhibition rate incubated for 72 hrs by MTT assay; format: functional, cell-based; details: HepG2, 72 h
MDA-MB-231 [6] = test: Induction cell cycle arrest in human MDA-MB-231 cells assessed as accumulation at G2 phase at 0.4 uM measured after 48 hrs by PI staining based flow cytometry (reference value: 10.2%); format: functional
[7] = target: T1, DNA topoisomerase 1 (Homo sapiens); test: Inhibition of topoisomerase 1 (unknown origin) assessed as relaxation of supercoiled plasmid pBR322 DNA at 20 uM incubated for 15 mins by agarose gel electrophoresis
MDA-MB-231 [8] = test: Induction of mitochondrial membrane disruption in human MDA-MB-231 cells assessed as mitochondrial dysfunction at 0.4 uM measured after 48 hrs by JC-1 staining based flow cytometry (reference value: 3%); format: functional
HCT-116 = test: Antiproliferative activity against human HCT-116 cells assessed as inhibition rate incubated for 72 hrs by MTT assay; format: functional, cell-based; details: HCT-116, 72 h
MCF-10A = test: cells; format: ADME, cell-based; details: Homo sapiens, 72 h
Description: Antiproliferative activity against human MCF-10A cells assessed as inhibition rate incubated for 72 hrs by MTT assay

Breast carcinoma cell [9] = test: Antitumour activity against human TNBC breast carcinoma cell tissue xenografted PDTX SCID mouse model assessed as tumor cell necrosis […] at 5 to 20 mg/kg treated for 7 days; format: functional, organism-based; details: dose 5-20 mg/kg, time 7.0 day
MDA-MB-231 [10] = test: Induction cell cycle arrest in human MDA-MB-231 cells assessed as increase in CDK2 expression at 0.4 uM measured after 48 hrs by Western blot analysis; format: functional, cell-based
Breast carcinoma cell [11] = test: Antitumour activity against human TNBC breast carcinoma cell tissue xenografted PDTX SCID mouse model assessed as reduction in cancer cell density at 5 to 20 mg/kg treated for 7 days; format: functional, organism-based; details: dose 5-20 mg/kg, time 7.0 day
MDA-MB-231 [12] = test: Antiproliferative activity against human MDA-MB-231 cells assessed as inhibition rate incubated for 72 hrs by MTT assay; format: functional, cell-based; details: MDA-MB-231, 72 h
MDA-MB-231 [13] = test: Antiproliferative activity against human MDA-MB-231 cells assessed as inhibition rate at 100 uM incubated for 72 hrs by MTT assay; format: functional
MDA-MB-231 [14] = test: Induction cell cycle arrest in human MDA-MB-231 cells assessed as increase in p53 expression at 0.4 uM measured after 48 hrs by Western blot analysis; format: functional, cell-based
MDA-MB-231 [15] = test: Induction of apoptosis in human MDA-MB-231 cells assessed as increase in cleaved caspase-3 expression at 0.1 to 0.4 uM measured after 48 hrs by Western blot analysis; format: functional, cell-based; details: dose 0.1-0.4 µM
MDA-MB-231 [16] = test: Induction of apoptosis in human MDA-MB-231 cells assessed as increase in Bax expression at 0.1 to 0.4 uM measured after 48 hrs by Western blot analysis; format: functional, cell-based; details: dose 0.1-0.4 µM
MDA-MB-231 [17] = test: Induction cell cycle arrest in human MDA-MB-231 cells assessed as accumulation at G2 phase at 0.1 uM measured after 48 hrs by PI staining based flow cytometry (reference value: 10.2%); format: functional
MDA-MB-231 [18] = test: Effect on Akt expression in human MDA-MB-231 cells at 0.4 uM measured after 48 hrs by Western blot analysis; format: functional, cell-based
A549 = test: Antiproliferative activity against human A549 cells assessed as inhibition rate incubated for 72 hrs by MTT assay; format: functional, cell-based; details: A549, 72 h
MDA-MB-231 [19] = test: Induction cell cycle arrest in human MDA-MB-231 cells assessed as accumulation at G1 phase at 0.1 uM measured after 48 hrs by PI staining based flow cytometry (reference value: 53.7%); format: functional
MDA-MB-231 [20] = test: Induction of apoptosis in human MDA-MB-231 cells assessed as decrease in Bcl-2 expression at 0.1 to 0.4 uM measured after 48 hrs by Western blot analysis; format: functional, cell-based; details: dose 0.1-0.4 µM
[21] = Toxicity in PDTX SCID mouse model at 5 to 20 mg/kg measured upto 7 days; format: organism-based; details: in vivo, 168 h, dose 5-20 mg/kg, time <=7 day
MDA-MB-231 [22] = test: Inhibition of PI3K in human MDA-MB-231 cells assessed as Akt phosphorylation at 0.4 uM measured after 48 hrs by Western blot analysis; format: cell-based
MDA-MB-231 [23] = test: Induction of apoptosis in human MDA-MB-231 cells assessed as increase in cytochrome c expression at 0.1 to 0.4 uM measured after 48 hrs by Western blot analysis; format: functional, cell-based; details: dose 0.1-0.4 µM

- Activity [5]: Active
- IC50 (HepG2): 4.65 µM
- inhibition [7]: Active
- IC50 (HCT-116): 0.76 µM
- IC50 (MDA-MB-231 [12]): 0.36 µM
- IC50 (A549): 5.24 µM
SMILES: O=C1c2cc(Cl)ccc2OC2c3oc4ccc(O)cc4c3CCN12 (configuration not stated)
- Activity (MDA-MB-231 [1]): Active
- Activity (MDA-MB-231 [2]): 5.3%
- Ratio IC50 [3]: 12.7
- Activity (MDA-MB-231 [4]): 22.4%
- Activity (MDA-MB-231 [6]): 6.9%
- Activity (MDA-MB-231 [8]): 25%
- IC50 (MCF-10A): 6.76 µM
- Activity (Breast carcinoma cell [9]): Active
- Activity (MDA-MB-231 [10]): Active
- Activity (Breast carcinoma cell [11]): Active
- inhibition at 100 µM (MDA-MB-231 [13]): 95.8%
- Activity (MDA-MB-231 [14]): Active
- Activity (MDA-MB-231 [15]): Active
- Activity (MDA-MB-231 [16]): Active
- Activity (MDA-MB-231 [17]): 7.2%
- Activity (MDA-MB-231 [18]): inactive
- Activity (MDA-MB-231 [19]): 68.1%
- Activity (MDA-MB-231 [20]): Active
- Activity [21]: Non-Toxic
- inhibition (MDA-MB-231 [22]): Active
- Activity (MDA-MB-231 [23]): Active
